Results on one compound are retold here after patent US7479492B2, “Use combined 5-HT1A agonists and selective serotonin reuptake inhibitors” (Merck Patent GmbH, priority 2000, dated 2009).

The test system of assay [1] is writhing response induced by phenylbenzoquinone (PBQ) or acetic acid. The assay is described as follows: Phenylbenzoquinone and acetic writhing tests in mice. The following applies: 30 mg/kg p.o., PBQ 1.25 mg/kg i.p. or acetic acid 0.5% i.p. The format is in vivo, mouse. Here is the method: 5. Phenylbenzoquinone and acetic writhing tests in mice follow the methods described by Hendershot et al (J. Pharmacol. Exp. Ther. 1959, 125: 237-240): Mice are injected with phenylbenzoquinone (PBQ) (1.25 mg/kg i.p.) or acetic acid (0.5% i.p.). This treatment induces a recognizable writhing response in control animals. The number of writhes is counted for 10 minutes beginning 5 minutes after injection of PBQ or acetic acid.
On the technique in general: Writhing tests count abdominal constrictions after an irritant is injected.

Assay [2] relates to formalin-induced pain response (flinching). In words: Formalin paw test in the mouse or rat. The class given is in vivo. The following applies: 30 mg/kg p.o.; intraplantar 5% formalin. Here is the method:
1. Formalin paw test in the mouse or rat accorrding to Wheeler-Aceto et al., (Psychopharmacology 1991, 104: 35-44): Animals are given an intraplantar injection of 5% formalin (25 μl for the mouse, 50 μl for the rat) into the posterior left paw. This treatment induces a recognizable flinching response in control animals. The number of flinches is counted for 10 minutes, beginning immediately after injection of formalin (early phase) and again for 5 minutes in mice or 15 minutes in rats, beginning 20 minutes after the injection.

On to `Cl.N#Cc1ccc2[nH]cc(CCCCN3CCN(c4ccc5oc(C(N)=O)cc5c4)CC3)c2c1` [1-[4-(5-cyanoindol-3-yl)butyl]-4-(2-carbamoyl-benzofuran-5-yl)-piperazine hydrochloride], for which the reduction of writhes in assay [1] is reported as 82%. The “reduction of the formalin-induced pain response” value in assay [2] amounted to 79%.
